# From patent publication US10736974B2, “Scaffolds and multifunctional intermediates for imaging PSMA and cancer therapy” (THE JOHNS HOPKINS UNIVERSITY, priority 2014, dated 2020)
# Entries after “also recorded” stand apart in the source; their conditions may differ.
# Columns and labels:
# PC-3 PIP (PSMA+) cells = assay: In vitro stability studies (TLC of radiometabolites) in PC-3 PIP and PC-3 flu cells; settings: 30 minutes incubation, PC-3 PIP vs PC-3 flu cells
# [1] = system: PSMA+ PC-3 PIP and PSMA- PC-3 flu tumors; assay: PET-CT imaging of NOD/SCID mice bearing PSMA+ PC-3 PIP and PSMA- PC-3 flu tumors; type: in vivo
# Procedure: FIG. 8A, FIG. 8B, FIG. 8C, and FIG. 8D show positron emission tomography-computed tomography (PET-CT) images in male NOD-SCID mice injected with the radiolabeled [^18F]XY-20 compound at (FIG. 8A) 5-15 minutes, (FIG. 8B) 15-25 minutes, (FIG. 8C) 25-35 minutes and (FIG. 8D) 50-60 minutes after injection; the mice on the right in each panel were pretreated with ZJ43 and the mice on the left in each panel were not pretreated with ZJ43. The green arrows point to the PSMA-negative PC3-flu tumor and the red arrows point to the PSMA-expressing (PC3-PIP) tumor (target); 200 microCi of radiotracer was injected;
# Dynamic and whole-body PET and CT images were acquired on an eXplore VISTA small-animal PET (GE Healthcare) and an X-SPECT small SPECT/CT system (Gamma Medica Ideas), respectively. For imaging studies, anesthesia was induced with 3% and maintained under 1.5% isoflurane (v/v) in oxygen. PET or PET-CT imaging studies were performed on NOD/SCID mice bearing PSMA+PC-3 PIP and PSMA-PC-3 flu tumors. Following intravenous injection of [^18F]12 ([^18F]XY-20) PET images were acquired at 10 min, 30 min, 1 h, 2 h and 4 h p.i. as a pseudodynamic scan, i.e., a sequence of successive whole-body images were acquired in two bed positions. The dwell time at each bed position was 10 min for a total scan time of 20 minutes. An energy window of 250-700 keV was used. […]
# [2] = system: PSMA+ PC-3 PIP and PSMA- PC-3 flu tumors; assay: Ex vivo biodistribution in mice bearing PSMA+ PC-3 PIP and PSMA- PC-3 flu xenografts; settings: for Biodistribution, PC-3 Pip tumor: PSMA+ PC-3 PIP tumor; for Biodistribution, PC-3 flu tumor: PSMA- PC-3 flu tumor; for Biodistribution, Lrg int.: large intestine; for Biodistribution, Sm. int.: small intestine
compound,measurement,setting,value
"O=C(O)CC[C@H](NC(=O)O[C@@H](CCCCNC(=O)c1ccc([125I])cc1)C(=O)O)C(=O)O [[^125I]31, (S)-2-(((((S)-1-carboxy-5-(4-[^125I]iodobenzamido)pentyl)oxy)carbonyl)amino) pentanedioic acid]",radiometabolites / metabolism in cells,PC-3 PIP (PSMA+) cells,Polar radiometabolite(s) in extracellular and intracellular fluid were only seen; also recorded: observed only in PSMA+PC-3 PIP cells
O=C(O)CC[C@H](NC(=O)O[C@@H](CCCCNC(=O)c1ccc([18F])cc1)C(=O)O)C(=O)O [[^18F]12],tumor uptake on co-injection with an excess of competing inhibitor ZJ-43,[1],complete blockade of tumor uptake
same,tumor and kidney uptake and clearance (pharmacokinetics in words),[2]; PC-3 PIP tumor mice,modest PSMA+PC-3 PIP tumor uptake but rapidly cleared from both PC-3 PIP tumor and normal tissues including kidneys
same,"Biodistribution, PC-3 Pip tumor","[2]; 30 min, N = 7",6.33±1.55 percent injected dose/gram
same,"Biodistribution, PC-3 Pip tumor","[2]; 60 min, N = 4",3.52 ± 1.48 percent injected dose/gram
same,"Biodistribution, PC-3 Pip tumor","[2]; 90 min, N = 4",0.94 ± 0.24 percent injected dose/gram
same,"Biodistribution, PC-3 Pip tumor","[2]; 180 min, N = 4",0.22 ± 0.07 percent injected dose/gram
same,"Biodistribution, PC-3 flu tumor","[2]; 30 min, N = 7",1.89 ± 0.78 percent injected dose/gram
same,"Biodistribution, PC-3 flu tumor","[2]; 60 min, N = 4",0.72 ± 0.12 percent injected dose/gram
same,"Biodistribution, PC-3 flu tumor","[2]; 90 min, N = 4",0.37 ± 0.08 percent injected dose/gram
same,"Biodistribution, PC-3 flu tumor","[2]; 180 min, N = 4",0.12 0.03 percent injected dose/gram
same,clearance of radioactivity from organs,[2]; after 30 min,radioactivity rapidly cleared from all organs including PC-3 PIP tumor
same,"Biodistribution, bladder","[2]; 30 min, N = 7",22.4 ± 22.5 percent injected dose/gram
same,"Biodistribution, bladder","[2]; 60 min, N = 4",5.50 ± 3.45 percent injected dose/gram
same,"Biodistribution, bladder","[2]; 90 min, N = 4",2.11 ± 1.21 percent injected dose/gram
same,"Biodistribution, bladder","[2]; 180 min, N = 4",2.74 ± 0.48 percent injected dose/gram
same,"Biodistribution, blood","[2]; 30 min, N = 7",2.51 ± 1.75 percent injected dose/gram
same,"Biodistribution, blood","[2]; 60 min, N = 4",1.07 ± 0.26 percent injected dose/gram
same,"Biodistribution, blood","[2]; 90 min, N = 4",0.20 ± 0.14 percent injected dose/gram
same,"Biodistribution, blood","[2]; 180 min, N = 4",0.08 ± 0.06 percent injected dose/gram
same,"Biodistribution, bone","[2]; 30 min, N = 7",2.05 ± 2.39 percent injected dose/gram
same,"Biodistribution, bone","[2]; 60 min, N = 4",0.72 ± 0.31 percent injected dose/gram
same,"Biodistribution, bone","[2]; 90 min, N = 4",0.79 ± 0.16 percent injected dose/gram
same,"Biodistribution, bone","[2]; 180 min, N = 4",0.63 ± 0.14 percent injected dose/gram
same,"Biodistribution, fat","[2]; 30 min, N = 7",1.23 ± 1.88 percent injected dose/gram
same,"Biodistribution, fat","[2]; 60 min, N = 4",0.15 ± 0.05 percent injected dose/gram
same,"Biodistribution, fat","[2]; 90 min, N = 4",0.11 ± 0.06 percent injected dose/gram
same,"Biodistribution, fat","[2]; 180 min, N = 4",0.04 ± 0.02 percent injected dose/gram
same,"Biodistribution, heart","[2]; 30 min, N = 7",1.12 ± 0.74 percent injected dose/gram
same,"Biodistribution, heart","[2]; 60 min, N = 4",0.25 ± 0.08 percent injected dose/gram
same,"Biodistribution, heart","[2]; 90 min, N = 4",0.11 ± 0.02 percent injected dose/gram
same,"Biodistribution, heart","[2]; 180 min, N = 4",0.07 ± 0.04 percent injected dose/gram
same,"Biodistribution, kidney","[2]; 30 min, N = 7",14.2 ± 8.47 percent injected dose/gram
same,"Biodistribution, kidney","[2]; 60 min, N = 4",6.97 ± 7.02 percent injected dose/gram
same,"Biodistribution, kidney","[2]; 90 min, N = 4",1.51 ± 0.22 percent injected dose/gram
same,"Biodistribution, kidney","[2]; 180 min, N = 4",0.50 ± 0.18 percent injected dose/gram
same,"Biodistribution, Lrg int.","[2]; 30 min, N = 7",3.82 ± 5.87 percent injected dose/gram
same,"Biodistribution, Lrg int.","[2]; 60 min, N = 4",0.62 ± 0.27 percent injected dose/gram
same,"Biodistribution, Lrg int.","[2]; 90 min, N = 4",0.18 ± 0.03 percent injected dose/gram
same,"Biodistribution, Lrg int.","[2]; 180 min, N = 4",0.16 ± 0.05 percent injected dose/gram
same,"Biodistribution, liver","[2]; 30 min, N = 7",11.0 ± 1.77 percent injected dose/gram
same,"Biodistribution, liver","[2]; 60 min, N = 4",12.5 ± 3.01 percent injected dose/gram
same,"Biodistribution, liver","[2]; 90 min, N = 4",11.0 ± 0.87 percent injected dose/gram
same,"Biodistribution, liver","[2]; 180 min, N = 4",4.62 ± 3.80 percent injected dose/gram
same,"Biodistribution, lung","[2]; 30 min, N = 7",2.07 ± 1.51 percent injected dose/gram
same,"Biodistribution, lung","[2]; 60 min, N = 4",0.85 ± 0.55 percent injected dose/gram
same,"Biodistribution, lung","[2]; 90 min, N = 4",0.33 ± 0.05 percent injected dose/gram
same,"Biodistribution, lung","[2]; 180 min, N = 4",0.14 ± 0.04 percent injected dose/gram
same,"Biodistribution, muscle","[2]; 30 min, N = 7",0.86 ± 0.81 percent injected dose/gram
same,"Biodistribution, muscle","[2]; 60 min, N = 4",0.27 ± 0.12 percent injected dose/gram
same,"Biodistribution, muscle","[2]; 90 min, N = 4",0.06 ± 0.01 percent injected dose/gram
same,"Biodistribution, muscle","[2]; 180 min, N = 4",0.03 ± 0.01 percent injected dose/gram
same,"Biodistribution, Sm. int.","[2]; 30 min, N = 7",1.89 ± 1.58 percent injected dose/gram
same,"Biodistribution, Sm. int.","[2]; 60 min, N = 4",0.54 ± 0.19 percent injected dose/gram
same,"Biodistribution, Sm. int.","[2]; 90 min, N = 4",0.27 ± 0.11 percent injected dose/gram
same,"Biodistribution, Sm. int.","[2]; 180 min, N = 4",0.08 ± 0.04 percent injected dose/gram
same,"Biodistribution, spleen","[2]; 30 min, N = 7",3.76 ± 6.48 percent injected dose/gram
same,"Biodistribution, spleen","[2]; 60 min, N = 4",0.45 ± 0.31 percent injected dose/gram
same,"Biodistribution, spleen","[2]; 90 min, N = 4",0.27 ± 0.04 percent injected dose/gram
same,"Biodistribution, spleen","[2]; 180 min, N = 4",0.13 ± 0.08 percent injected dose/gram
